Data from patent US12208108B2, “Drug targets of delayed aging and human brain diseases” (Texas Tech University System, priority 2016, dated 2025).

Columns and labels:
Assay type in all cases: cell-based, Human
SHSY5Y cells [1] = experiment: Immunoblotting analysis of mitochondrial, synaptic proteins and Aβ
Text: Immunoblotting analysis. To determine the effects of Aβ on mitochondrial proteins and the useful effects of DDQ at the protein level, the inventors quantified mitochondrial proteins in five independent treatments of cells with Aβ, DDQ, Aβ+DDQ and DDQ+Aβ.
DDQ reduces Aβ and Drp1 levels. To determine whether DDQ reduces Aβ and Drp1 levels, the inventors conducted immunoblotting analysis, in cells treated with DDQ, Aβ+DDQ and DDQ+Aβ.
FIG. 3 illustrates the experimental strategy of the cell culture work and including treatments. The cells were grown in a medium (1:1 DMEM and F12, 10% FBS, lx penicillin, and streptomycin) at 37° C. in a humified incubator with a 5% CO2 environment. After seeding were allowed to grow for 24-48 hrs or until 80% confluence in six-well plates and used for experiments. The inventors used five different groups of cells—(1) untreated SHSY5Y cells; (2) SHSY5Y cells treated with DDQ (250 nM final concentration) for 24 hrs; (3) SHSY5Y cells incubated with Aβ peptide 1-42 (20 uM final concentration) for 6 hrs; (4) SHSY5Y cells treated Aβ for 6 hrs+DDQ for 24 hrs and (5) SHSY5Y cells treated DDQ for 24 hrs and Aβ for 6 hrs. Half a million SHSY5Y cells were suspended per well into six-well plates. The inventors used Aβ peptide 1-42 and DDQ 250 nM in the experiments. After treatments, the inventors harvested cells, conducted experiments to measure the levels mRNA using Sybr-Green based real-time RT-PCR, proteins using immunoblotting and immunofluorescence analysis and cell viability using MTT assay. The inventors counted the number of mitochondria by electron microscopy.

SHSY5Y cells [2] = experiment: Cell viability test (MTT assay)
Description: Cell viability test (MTT assay). Mitochondrial respiration, an indicator of cell viability, was assessed in the SHSY5Y cells from control and experimental treatments (n=4), using the mitochondrial-dependent reduction of 3-(4,5-dimethyl-thiazol-2-yl)-2,5-diphenyl-tetrazolium bromide (MTT) to formazan as described in Manczak et al..

SHSY5Y cells [3] = experiment: Cytochrome oxidase activity
Description: Cytochrome oxidase activity. Cytochrome oxidase activity was measured in the mitochondria isolated from SHSY5Y cells of control and experimental treatments (n=4), as described in Manczak et al.^33. Enzyme activity was assayed spectrophotometrically using a Sigma Kit (Sigma-Aldrich) following manufacturer's instructions.

SHSY5Y cells [4] = experiment: Transmission electron microscopy, mitochondrial number and length
Text: Transmission electron microscopy. To determine the effects of DDQ on mitochondrial number and morphology, and any rescual effects of DDQ on mitochondria in the untreated and Aβ treated cells, the inventors used TEM on untreated, DDQ, Aβ+DDQ and DDQ+Aβ, treated SHSY5Y cells.
Transmission electron microscopy. To determine the effects of DDQ on the numbers of mitochondria and any rescue effects of DDQ on mitochondria in the mutant SHSY5Y neurons, the inventors used TEM on untreated and treated SHSY5Y cells (as shown in FIG. 3). [Batches 1-5]. All SHSY5Y cells batches 1-5 were fixed in […] sodium cacodylate (pH 7.2), 2.5% glutaraldehyde, 1.6% paraformaldehyde, 0.064% picric acid and 0.1% ruthenium red. They were gently washed and post-fixed for 1 h in 1% osmium tetroxide plus […] potassium ferricyanide, in 100 mm sodium cacodylate, pH 7.2. After a thorough rinsing in water, the SHSY5Y cells were dehydrated, infiltrated overnight in 1:1 acetone:Epon 812 and infiltrated for 1 h with 100% Epon 812 resin. They were then embedded in the resin. After polymerization, 60 to 80 nm thin sections were cut on a Reichert ultramicrotome and stained for 5 min in lead citrate. They were rinsed and post-stained for 30 min in uranyl acetate and then were rinsed again and dried. Electron microscopy was performed at 60 kV on a Philips Morgagne TEM equipped with a CCD, and images were collected at magnifications of ×1000-37 000. The numbers of mitochondria were counted in the SHSY5Y cells batches 1-5, and statistical significance was determined, using one-way ANOVA.

SHSY5Y cells [5] = experiment: H2O2 production (Amplex Red)
Description: Mitochondrial function assays. Hydrogen peroxide production. Using an Amplex® Red H2O2 Assay Kit (Molecular Probes, Eugene, Oreg.), the inventors measured the production of H2O2 in independent experiments (n=4) of SHSY5Y neurons treated 1) with and 2) without DDQ, DDQ treated and then incubated with Aβ, as described in Manczak et al..

[6] = Aβ + DDQ (Aβ1-42 20 μM 6 hrs, then DDQ 24 hrs) vs untreated cells
[7] = Aβ + DDQ (Aβ1-42 6 hrs, then DDQ 24 hrs) vs Aβ treated cells
[8] = DDQ 250 nM 24 hrs vs untreated cells
[9] = DDQ + Aβ (DDQ 24 hrs, then Aβ1-42 6 hrs) vs Aβ treated cells
[10] = DDQ + Aβ (DDQ 24 hrs, then Aβ1-42 6 hrs) vs untreated cells
[11] = DDQ + Aβ (DDQ 24 hrs, then Aβ1-42 6 hrs) vs Aβ incubated cells
[12] = DDQ post-treated (Aβ + DDQ) vs cells treated with Aβ alone
[13] = DDQ-pre treated (DDQ + Aβ) vs cells treated with Aβ alone

SMILES: CCOP(=O)(OCC)C(NCCc1ccc(O)c(O)c1)c1ccnc2ccccc12 (centres unmarked) [DDQ, diethyl(3,4-dihydroxyphenethylamine)(quinolin-4-yl)methylphosphonate]
- Drp1 protein level (SHSY5Y cells [1]; [6]): reduced
- Fis1 protein level (SHSY5Y cells [1]; [6]): reduced
- Mfn1 protein level (SHSY5Y cells [1]; [6]): significantly increased
- PSD95 protein level (SHSY5Y cells [1]; [6]): significantly increased
- synaptophysin protein level (SHSY5Y cells [1]; [6]): significantly increased
- Drp1 protein level (SHSY5Y cells [1]; [7]): significantly reduced levels
- Mfn1 protein level (SHSY5Y cells [1]; [7]): increased
- Mfn2 protein level (SHSY5Y cells [1]; [7]): increased
- Nrf1 protein level (SHSY5Y cells [1]; [7]): increased
- Nrf2 protein level (SHSY5Y cells [1]; [7]): increased
- PSD95 protein level (SHSY5Y cells [1]; [7]): increased
- TFAM protein level (SHSY5Y cells [1]; [7]): increased
- synaptophysin protein level (SHSY5Y cells [1]; [7]): increased
- 4 kDa Aβ levels (SHSY5Y cells [1]; Aβ + DDQ (Aβ1-42 6 hrs, then DDQ 24 hrs) vs cells treated with Aβ alone): reduced levels
- Drp1 protein level (SHSY5Y cells [1]; [8]): significantly reduced
- Fis1 protein level (SHSY5Y cells [1]; [8]): significantly reduced
- Mfn2 protein level (SHSY5Y cells [1]; [8]): significantly increased
- Mitochondrial biogenesis protein levels (SHSY5Y cells [1]; [8]): significantly increased
- Drp1 protein level (SHSY5Y cells [1]; [9]): significantly reduced levels
- Fis1 protein level (SHSY5Y cells [1]; [9]): significantly reduced levels
- Mfn1 protein level (SHSY5Y cells [1]; [9]): increased
- Mfn2 protein level (SHSY5Y cells [1]; [9]): increased
- Nrf1 protein level (SHSY5Y cells [1]; [9]): significantly increased levels
- Nrf2 protein level (SHSY5Y cells [1]; [9]): significantly increased levels
- PSD95 protein level (SHSY5Y cells [1]; [9]): increased
- TFAM protein level (SHSY5Y cells [1]; [9]): significantly increased levels
- synaptophysin protein level (SHSY5Y cells [1]; [9]): increased
- 4 kDa Aβ levels (SHSY5Y cells [1]; DDQ + Aβ (DDQ 24 hrs, then Aβ1-42 6 hrs) vs cells treated with Aβ alone): reduced levels
- Drp1 protein level (SHSY5Y cells [1]; [10]): Decreased levels
- Cell viability (SHSY5Y cells [2]; [6]): unchanged
- Cell viability (SHSY5Y cells [2]; [8]): significantly increased
- Cell viability (SHSY5Y cells [2]; [11]): Significantly increased
- Cell viability (SHSY5Y cells [2]; [10]): unchanged
- cytochrome oxidase activity (SHSY5Y cells [3]; [6]): unchanged
- cytochrome oxidase activity (SHSY5Y cells [3]; Aβ + DDQ (Aβ1-42 6 hrs, then DDQ 24 hrs) vs Aβ incubated cells): increased
- cytochrome oxidase activity (SHSY5Y cells [3]; [8]): significantly increased levels
- cytochrome oxidase activity (SHSY5Y cells [3]; [11]): increased
- cytochrome oxidase activity (SHSY5Y cells [3]; [10]): unchanged
- mitochondrial length (SHSY5Y cells [4]; [6]): not significantly changed
- number of mitochondria (SHSY5Y cells [4]; [6]): approximately equal number
- mitochondrial length (SHSY5Y cells [4]; [8]): significantly increased
- number of mitochondria (SHSY5Y cells [4]; [8]): reduced
- mitochondrial length (SHSY5Y cells [4]; [10]): not significantly changed
- number of mitochondria (SHSY5Y cells [4]; [10]): approximately equal number
- mitochondrial length (SHSY5Y cells [4]; [12]): significantly increased
- number of mitochondria (SHSY5Y cells [4]; [12]): significantly reduced
- mitochondrial length (SHSY5Y cells [4]; [13]): significantly increased
- number of mitochondria (SHSY5Y cells [4]; [13]): significantly reduced
- H2O2 levels (SHSY5Y cells [5]; [6]): Significantly increased levels
- H2O2 levels (SHSY5Y cells [5]; Aβ + DDQ (Aβ1-42 6 hrs, then DDQ 24 hrs) vs cells incubated with Aβ): significantly reduced
- H2O2 levels (SHSY5Y cells [5]; [8]): significantly decreased levels
- H2O2 levels (SHSY5Y cells [5]; DDQ + Aβ (DDQ 24 hrs, then Aβ1-42 6 hrs) vs cells incubated with Aβ): significantly reduced
- H2O2 levels (SHSY5Y cells [5]; [10]): Significantly increased levels
